Data taken from publication PMC2885805 (Pesticide biochemistry and physiology, 2010).

Legend:
[1] = tested on: non-desensitizing GluCl (cockroach neurons); assay: whole-cell patch clamp, glutamate-induced chloride current; type: cell-based, Periplaneta americana; conditions: cited from earlier work
[2] = tested on: desensitizing GluCl (cockroach neurons); assay: as above; type: cell-based, Periplaneta americana; conditions: peak current measured; cited from earlier work
rat GABAA receptor = assay: whole-cell patch clamp, GABA-induced chloride current; type: cell-based; conditions: closed channel; rat dorsal root ganglion neurons; cited from earlier work
cockroach GABA receptor = assay: as above; type: cell-based, Periplaneta americana; conditions: resting receptor; holding potential −60 mV, symmetric chloride; cited from earlier work
[3] = tested on: desensitizing GluCl (cockroach neurons); assay: whole-cell patch clamp, glutamate-induced chloride current; type: cell-based, Periplaneta americana; conditions: 30 μM picrotoxinin; desensitizing component

Row | Structure (SMILES) | IC50 ([1]; steady-state current measured, use-dependent open-channel block) [nM] | IC50 [2] [nM] | IC50 (rat GABAA receptor) [nM] | IC50 (cockroach GABA receptor) [nM] | IC50 ([1]; non-desensitizing component) [nM] | % inhibition at 30 μM [3] [%]
1 | N#Cc1nn(-c2c(Cl)cc(C(F)(F)F)cc2Cl)c(N)c1[S+]([O-])C(F)(F)F (stereo not drawn) [fipronil] | 10 ± 0.9 | 801 ± 207 | 1660 | 28 | – | –
2 | C=C(C)[C@@H]1[C@H]2OC(=O)[C@@H]1[C@]1(O)C[C@H]3O[C@]34C(=O)O[C@H]2[C@]14C [picrotoxinin] | – | – | – | – | 4100 ± 1000 | 8.2 ± 2.9
